The target of data set [1] is amyloid β peptide aggregates (1-40) (Homo sapiens (Human), UniProt P05067). It counts as binding. Conditions: for IC50: aggregates 1 μM, thioflavin-T 3 μM, compound 0.02 to 20 μM, 30 minutes at 23° C., read-out: Amyloid binding property (IC50); for binding to amyloid β peptide aggregates (in words): thioflavin-T fluorescence inhibition. As for the experimental part: The binding capacity of the compounds to an amyloid β peptide aggregate was quantitatively measured by a thioflavin-T fluorescence inhibition test. […] The resultant solution was cause to react for 30 minutes at 23° C. with the light shielded. Then, the fluorescence of thioflavin-T was measured under a condition of Ex=440 nm, Em=490 nm, Cutoff filter=475 nm. The IC50 values were calculated by using an analysis software, GraphPad PRISM Ver.5 (GraphPad Software, Inc.).

In data set [2] the target is amyloid β peptide aggregates (Homo sapiens (Human), UniProt P05067). As to the kind of experiment: Binding to and release from precipitated amyloid β peptide aggregates (absorbance of supernatant). The conditions noted are these: compound 2 μg/mL in phosphate buffer, 1 hour reaction. As for the experimental part: Each of compound 23, compound 1, and compound 24 is dissolved at a concentration of 2 μg/mL, in a phosphate buffer, and then amyloid β peptide aggregates are added to each solution, and the resultant solution is caused to react for 1 hour. Then, the solution is centrifuged for 10 minutes at 6,000 rpm, to separate the amyloid β peptide aggregates. A supernatant was removed, and an absorbance measurement was performed to measure the quantity of the compound that had not bound to the amyloid peptide aggregates and that were contained in the supernatant. The obtained quantity was subtracted from the original quantity of the compound, whereby the quantity of the compound that had bound to the amyloid β peptide aggregates was calculated.
Next, the precipitated amyloid β peptide aggregates were washed, a buffer was added thereto, and the quantity of the compound that got released was measured. Then, the rate of the compound that had bound to amyloid β peptide aggregates and then was eluted into the buffer was calculated using the original quantity of the compound as 100%.

Molecules are shown by their SMILES. Bounds are passed on as bounds.

Chain of amyloid β peptide aggregates (1-40) (P05067 672-711): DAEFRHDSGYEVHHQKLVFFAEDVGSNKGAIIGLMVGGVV
Chain of amyloid β peptide aggregates (P05067 672-711): as above

With `O=C(O)CCC(C(=O)/C=C/c1ccc(O)c(OC(F)(F)F)c1)C(=O)/C=C/c1ccc(O)c(OC(F)(F)F)c1` [Compound 2, 1,7-bis(4′-hydroxy-3′-trifluoromethoxyphenyl)-4-carboxylethyl-1,6-heptadiene-3,5-dione], in data set [1] (pH 7.4), the IC50 (as a rule, the concentration needed to halve the response being measured) came out at 1300 nM.

In the case of `COC(=O)CCC(C(=O)/C=C/c1ccc(OC)c(F)c1)C(=O)/C=C/c1ccc(OC)c(F)c1` [Compound 3], the melting point (in general, the temperature, or range, at which the solid turns liquid) was 170 to 171 °C.

Take `COc1ccc(/C=C/C(=O)C(CCC(=O)O)C(=O)/C=C/c2ccc(OC)c(F)c2)cc1F` [Compound 4]: the melting point is 171 to 172 °C.

In turn, `COC(=O)CC(C(=O)/C=C/c1ccc(O)c(OC(F)(F)F)c1)C(=O)/C=C/c1ccc(O)c(OC(F)(F)F)c1` [Compound 5] displayed a melting point of 140 to 141 °C. In data set [1] (pH 7.4), the IC50 worked out at 520 nM.

The compound `COC(=O)CCCC(C(=O)/C=C/c1ccc(O)c(OC(F)(F)F)c1)C(=O)/C=C/c1ccc(O)c(OC(F)(F)F)c1` [Compound 6] displayed a melting point of 147 to 148 °C. Besides, in data set [1] (pH 7.4), the half-inhibitory concentration (IC50) was found to be 310 nM.

Compound `CCOC(=O)C(C(=O)/C=C/c1ccc(O)c(OC(F)(F)F)c1)C(=O)/C=C/c1ccc(O)c(OC(F)(F)F)c1` [Compound 7] came in with a melting point of 179 to 180 °C. For the same compound, in data set [1] (pH 7.4), the IC50 came out at 140 nM.

The compound `CCOC(=O)CCC(C(=O)/C=C/c1ccc(O)c(OC(F)(F)F)c1)C(=O)/C=C/c1ccc(O)c(OC(F)(F)F)c1` [Compound 8] had a melting point of 155 to 156 °C. The IC50 in data set [1] (pH 7.4) is 380 nM.

In turn, `CC(C)(C)OC(=O)CCC(C(=O)/C=C/c1ccc(O)c(OC(F)(F)F)c1)C(=O)/C=C/c1ccc(O)c(OC(F)(F)F)c1` [Compound 9] gave a melting point of 175 °C. Besides, the IC50 in data set [1] (pH 7.4) came to 650 nM.

`CC(C)OC(=O)CCC(C(=O)/C=C/c1ccc(O)c(OC(F)(F)F)c1)C(=O)/C=C/c1ccc(O)c(OC(F)(F)F)c1` [Compound 10]: the melting point came out at 191 °C.

Compound `COC(=O)CCC(C(=O)/C=C/c1cc(F)c(O)c(F)c1)C(=O)/C=C/c1cc(F)c(O)c(F)c1` [Compound 11] came in with a melting point of 178 to 179 °C.

`COc1ccc(/C=C/C(=O)C(CCC(=O)[O-])C(=O)/C=C/c2ccc(OC)c(F)c2)cc1F.[Na+]` [Compound 12] gave a melting point of over 200 °C.

`CC(=O)OCCCC(C(=O)/C=C/c1ccc(O)c(OC(F)(F)F)c1)C(=O)/C=C/c1ccc(O)c(OC(F)(F)F)c1` [Compound 13, 1,7-bis(4′-hydroxy-3′-trifluoromethoxyphenyl)-4-acetoxypropyl-1,6-heptadiene-3,5-dione]: the melting point lay within 130 to 131 °C.

The compound `COC(=O)CCC(C(=O)/C=C/c1ccc(O)c(C(F)(F)F)c1)C(=O)/C=C/c1ccc(O)c(C(F)(F)F)c1` [Compound 14] had a melting point of 183 °C. Also, the IC50 in data set [1] (pH 7.4) was determined as 360 nM.

Regarding `N#CCCC(C(=O)/C=C/c1ccc(O)c(OC(F)(F)F)c1)C(=O)/C=C/c1ccc(O)c(OC(F)(F)F)c1` [Compound 15], the melting point is 134 to 135 °C. Moreover, the IC50 in data set [1] (pH 7.4) came to 300 nM.

In turn, `CC(C(=O)/C=C/c1ccc(O)c(OC(F)(F)F)c1)C(=O)/C=C/c1ccc(O)c(OC(F)(F)F)c1` [Compound 16] displayed a melting point of 178 to 179 °C. Further, the IC50 in data set [1] (pH 7.4) stood at 320 nM.

In the case of `COC(=O)CCC(C(=O)C=Cc1ccc(OC(C)=O)c(OC(F)(F)F)c1)C(=O)C=Cc1ccc(OC(C)=O)c(OC(F)(F)F)c1` (centres unmarked) [Compound 17, 1,7-bis(4′-acetoxy-3′-trifluoromethoxyphenyl)-4-methoxycarbonylethyl-1,6-heptadiene-3,5-dione], the melting point lay within 149 to 150 °C.

Consider `COC(=O)CCC(C(=O)/C=C/c1ccc(O)c(OC(F)(F)F)c1)C(=O)/C=C/c1ccc(OC(C)=O)c(OC(F)(F)F)c1` (centres unmarked) [Compound 18], for which the melting point lay within 124 to 126 °C.

Turning to `COCOCCCC(C(=O)/C=C/c1ccc(O)c(OC(F)(F)F)c1)C(=O)/C=C/c1ccc(O)c(OC(F)(F)F)c1` [Compound 20], in data set [1] (pH 7.4), the half-inhibitory concentration (IC50) stood at 500 nM.

`CN(C)C(=O)CCC(C(=O)/C=C/c1ccc(O)c(OC(F)(F)F)c1)C(=O)/C=C/c1ccc(O)c(OC(F)(F)F)c1` [Compound 21] returned a melting point of 192 to 193 °C. Also, the half-maximal inhibitory concentration (IC50) in data set [1] (pH 7.4) is 500 nM.

With `O=C(/C=C/c1ccc(O)c(OC(F)(F)F)c1)C(CCOCCO)C(=O)/C=C/c1ccc(O)c(OC(F)(F)F)c1` [Compound 22, 1,7-bis(4′-hydroxy-3′-trifluoromethoxyphenyl)-4-(2′-hydroxyethoxyethyl)-1,6-heptadiene-3,5-dione], the melting point fell in the range of 112 to 114 °C. For the same compound, the IC50 in data set [1] (pH 7.4) came out at 700 nM.

Compound `O=C(/C=C/c1ccc(O)c(OC(F)(F)F)c1)CC(=O)/C=C/c1ccc(O)c(OC(F)(F)F)c1` [Compound 23] yielded a melting point of 172 to 173 °C. The IC50 in data set [1] (pH 7.4) came out at 210 nM. In addition, the “binding to amyloid β peptide aggregates (in words)” value in data set [1] was “strongly bound”. For the same compound, the “binding rate to amyloid β peptide aggregates” value in data set [2] amounted to 85%.

Take `CC(C)(C(=O)/C=C/c1ccc(O)c(OC(F)(F)F)c1)C(=O)/C=C/c1ccc(O)c(OC(F)(F)F)c1` [Compound 24, reference compound]: in data set [1] (pH 7.4), the IC50 is over 15000 nM. Also, the “binding to amyloid β peptide aggregates (in words)” value in data set [1] is “scarcely bound”. Further, the “binding rate to amyloid β peptide aggregates” value in data set [2] worked out at 27%.

The compound `COC(=O)COc1ccc(/C=C/C(=O)CC(=O)/C=C/c2ccc(O)c(OC)c2)cc1OC` [Compound 25] came in with a melting point of 88 to 90 °C. In addition, the IC50 in data set [1] (pH 7.4) turned out to be 140 nM.

On to `COc1cc(/C=C/C(=O)CC(=O)/C=C/c2ccc(OCC(=O)O)c(OC)c2)ccc1O` [Compound 26], for which the melting point is 190 to 192 °C (dec.). Moreover, in data set [1] (pH 7.4), the IC50 was found to be 310 nM.

For `COc1cc(/C=C/C(=O)CC(=O)/C=C/c2ccc(O)c(C(F)(F)F)c2)ccc1O` [Compound 27], the melting point turned out to be 200 °C. Also, the IC50 in data set [1] (pH 7.4) was found to be 130 nM.

On to `CNc1ccc(/C=C/C(=O)CC(=O)/C=C/c2ccc(NC)c(C(F)(F)F)c2)cc1C(F)(F)F` [Compound 28], for which the melting point fell in the range of 192 to 194 °C. In data set [1] (pH 7.4), the IC50 is 5800 nM and the “solubility remark in amyloid binding test” value is reported as “hardly soluble”.

`COc1cc(/C=C/C(=O)CC(=O)/C=C/c2cncc(C(F)(F)F)c2)ccc1O` [Compound 29] registered a melting point of 187 to 189 °C. The half-maximal inhibitory concentration (IC50) in data set [1] (pH 7.4) was 100 nM.

On to `COC(=O)CCC(C(=O)/C=C/c1ccc(O)c(OC(F)(F)F)c1)C(=O)/C=C/c1ccco1` (centres unmarked) [Compound 30], for which the melting point worked out at 141 °C. In addition, the IC50 in data set [1] (pH 7.4) amounted to 650 nM.
